Values after ≈ are worked out from the molar mass of the structure shown. Read-outs that look alike come from different tables or passages of the source.
How the values were obtained:
[1] = tested on: AABA1060 (clinical isolate of Acinetobacter baumannii); assay: MIC broth microdilution, AABA1060; format: cell-based; details: Acinetobacter baumannii, read-out: MIC AABA1060
Procedure: (§1) Bacterial isolates were cultivated from −70° C. frozen stocks by overnight passages at 35° C. in ambient air on Mueller-Hinton agar (Beckton Dickinson, Franklin Lakes, N.J.). Clinical isolates tested were obtained from various geographically diverse hospitals in the US and abroad (Focus Diagnostics, Herndon, Va. and JMI, North Liberty, Iowa). Quality control strains were from the American Type Culture Collection (ATCC; Rockville, Md.). Additional primary panel strains were generated using standard molecular biology techniques.
(§2) Minimum Inhibitory Concentrations (MICs) were determined by the broth microdilution method in accordance with the Clinical and Laboratory Standards Institute (CLSI) guidelines. In brief, organism suspensions were adjusted to a 0.5 McFarland standard to yield a final inoculum between 3×10^5 and 7×10^5 colony-forming units (CFU)/mL. Drug dilutions and inocula were made in sterile, cation adjusted Mueller-Hinton Broth (Beckton Dickinson). An inoculum volume of 100 μL was added to wells containing 100 μL of broth with 2-fold serial dilutions of drug. All inoculated microdilution trays were incubated in ambient air at 35° C. for 18-24 hours. […] Performance of the assay was monitored by the use of laboratory quality-control strains and levofloxacin, a compound with a defined MIC spectrum, in accordance with CLSI guidelines.
(§3) *AECO001 is ATCC25922, AECO063 is ATCC25922 bearing an acrAB mutation, APAE001 is ATCC27853, APAE006 is a strain of P. aeruginosa in which all efflux pumps are inactivated, APAE006+PMBN indicates MICs with the indicated strain in the presence of 8 micrograms per milliliter of polymyxin B nonapeptide, AABA1060 is a clinical isolate of Acinetobacter baumannii, ASAU001 is a laboratory strain of S. aureus (ATCC29213).

[2] = tested on: APAE006 (strain of P. aeruginosa in which all efflux pumps are inactivated); assay: microbe, parasite or virus in culture; format: cell-based; details: Pseudomonas aeruginosa, read-out: MIC APAE006, APAE006, all efflux pumps inactivated
Procedure: as §1, §2, §3

[3] = tested on: APAE006 in the presence of 8 micrograms per milliliter of polymyxin B nonapeptide; format: cell-based, P. aeruginosa; details: APAE006 with 8 micrograms per milliliter polymyxin B nonapeptide
Procedure: as §1, §2, §3

[4] = tested on: AECO063 (ATCC25922 bearing an acrAB mutation); assay: microbe, parasite or virus in culture; format: cell-based, E. coli; details: Escherichia coli, ATCC25922, read-out: MIC AECO063
Procedure: as §1, §2, §3

[5] = tested on: AECO001 (ATCC25922); assay: MIC broth microdilution, AECO001; format: cell-based, E. coli; details: for MIC: Escherichia coli; for Ratio of MICs on AECO001 [Cpd (A = —CHCH3NH2)/Cpd (A = —C(CH3)2NH2)]: MIC of paired compound with A = —CHCH3NH2 divided by MIC of compound with A = —C(CH3)2NH2, n=2 data, pairs identical except for the A moiety
Procedure: as §1, §2, §3

[6] = tested on: APAE001 (ATCC27853); assay: MIC broth microdilution, APAE001; format: cell-based, P. aeruginosa; details: Pseudomonas aeruginosa, ATCC27853, read-out: MIC APAE001, APAE001 (ATCC27853)
Procedure: as §1, §2, §3

[7] = tested on: ASAU001 (laboratory strain of S. aureus, ATCC29213); assay: MIC broth microdilution, ASAU001; format: cell-based; details: Staphylococcus aureus, ATCC29213, read-out: MIC ASAU001
Procedure: as §1, §2, §3

[8] = ATCC25922, read-out: MIC AECO001
[9] = ATCC25922, read-out: MIC AECO001 HSA AGP

SMILES | MIC [1] | MIC [2] | MIC APAE006 + PMBN [3] | MIC [4] | MIC [5, 8] | MIC [5, 9] | MIC [6] | MIC [7] | Ratio of MICs on AECO001 [Cpd (A = —CHCH3NH2)/Cpd (A = —C(CH3)2NH2)] [5]
C[C@@H](N)[C@H](NC(=O)c1ccc(C#CC#Cc2cnn(C)c2)cc1)C(=O)NO [Example 89-1, N-((2S,3R)-3-amino-1-(hydroxyamino)-1-oxobutan-2-yl)-4-((1-methyl-1H-pyrazol-4-yl)buta-1,3-diynyl)benzamide] | 2 to 16 µg/mL (≈ 5.47 to 43.8 µM) | < 2 µg/mL | A (MIC's of 2.0 μg/mL or less = A) | < 2 µg/mL | < 2 µg/mL | 2 to 16 µg/mL (≈ 5.47 to 43.8 µM) | < 2 µg/mL | 16 to 64 µg/mL (≈ 43.8 to 175 µM) | 
Cn1cc(C#CC#Cc2ccc(C(=O)N[C@H](C(=O)NO)C(C)(C)N)cc2)cn1 [Example 89-2] | < 2 µg/mL | < 2 µg/mL | A (MIC's of 2.0 μg/mL or less = A) | < 2 µg/mL | < 2 µg/mL | 2 to 16 µg/mL (≈ 5.27 to 42.2 µM) | < 2 µg/mL | 16 to 64 µg/mL (≈ 42.2 to 169 µM) | 1.6
Cn1cc(C#CC#Cc2ccc(C(=O)N[C@H](C(=O)NO)C(C)(C)O)cc2)cn1 [Example 89-3] | 2 to 16 µg/mL (≈ 5.26 to 42.1 µM) | < 2 µg/mL | A (MIC's of 2.0 μg/mL or less = A) | < 2 µg/mL | < 2 µg/mL | < 2 µg/mL | < 2 µg/mL | 16 to 64 µg/mL (≈ 42.1 to 168 µM) | 
C[C@@H](N)[C@H](NC(=O)c1ccc(C#CC#Cc2cncnc2)cc1)C(=O)NO [Example 89-4] | 16 to 64 µg/mL (≈ 44 to 176 µM) | < 2 µg/mL | A (MIC's of 2.0 μg/mL or less = A) | 2 to 16 µg/mL (≈ 5.5 to 44 µM) | 16 to 64 µg/mL (≈ 44 to 176 µM) | 16 to 64 µg/mL (≈ 44 to 176 µM) | 2 to 16 µg/mL (≈ 5.5 to 44 µM) | 16 to 64 µg/mL (≈ 44 to 176 µM) | 
Cn1cnc(C#CC#Cc2ccc(C(=O)N[C@H](C(=O)NO)C(C)(C)N)cc2)c1 [Example 89-5] | 2 to 16 µg/mL (≈ 5.27 to 42.2 µM) | < 2 µg/mL | A (MIC's of 2.0 μg/mL or less = A) | < 2 µg/mL | 2 to 16 µg/mL (≈ 5.27 to 42.2 µM) | 2 to 16 µg/mL (≈ 5.27 to 42.2 µM) | < 2 µg/mL | 16 to 64 µg/mL (≈ 42.2 to 169 µM) | 
CC(C)(N)[C@H](NC(=O)c1ccc(C#CC#Cc2cncnc2)cc1)C(=O)NO [Example 89-6] | 2 to 16 µg/mL (≈ 5.3 to 42.4 µM) | < 2 µg/mL | A (MIC's of 2.0 μg/mL or less = A) | < 2 µg/mL | 2 to 16 µg/mL (≈ 5.3 to 42.4 µM) | 2 to 16 µg/mL (≈ 5.3 to 42.4 µM) | < 2 µg/mL | 16 to 64 µg/mL (≈ 42.4 to 170 µM) | 
CC(C)(O)[C@H](NC(=O)c1ccc(C#CC#Cc2cncnc2)cc1)C(=O)NO [Example 89-7] | 16 to 64 µg/mL (≈ 42.3 to 169 µM) | < 2 µg/mL | A (MIC's of 2.0 μg/mL or less = A) | < 2 µg/mL | 2 to 16 µg/mL (≈ 5.29 to 42.3 µM) | 2 to 16 µg/mL (≈ 5.29 to 42.3 µM) | 2 to 16 µg/mL (≈ 5.29 to 42.3 µM) | 16 to 64 µg/mL (≈ 42.3 to 169 µM) | 
CCC#CC#Cc1ccc(C(=O)N[C@H](C(=O)NO)C(C)(C)N)cc1 [Example 91-1, N—((S)-2-Amino-1-hydroxycarbamoyl-2-methyl-propyl)-4-hexa-1,3-diynyl-benzamide] | < 2 µg/mL | < 2 µg/mL | A (MIC's of 2.0 μg/mL or less = A) | < 2 µg/mL | < 2 µg/mL | < 2 µg/mL | < 2 µg/mL | 2 to 16 µg/mL (≈ 6.11 to 48.9 µM) | 7.2
C[C@@H](O)[C@H](NC(=O)c1ccc(C#CC#CC2CC2)cc1)C(=O)NO [Example 91-5] | 2 to 16 µg/mL (≈ 6.13 to 49 µM) | < 2 µg/mL | A (MIC's of 2.0 μg/mL or less = A) | < 2 µg/mL | < 2 µg/mL | < 2 µg/mL | < 2 µg/mL | 16 to 64 µg/mL (≈ 49 to 196 µM) | 
CC(C)(O)[C@H](NC(=O)c1ccc(C#CC#CC2CC2)cc1)C(=O)NO [Example 91-6] | < 2 µg/mL | < 2 µg/mL | A (MIC's of 2.0 μg/mL or less = A) | < 2 µg/mL | < 2 µg/mL | < 2 µg/mL | < 2 µg/mL | 16 to 64 µg/mL (≈ 47 to 188 µM) | 
CCC#CC#Cc1ccc(C(=O)N[C@H](C(=O)NO)[C@@H](C)N)cc1 [Example 91-7] | 2 to 16 µg/mL (≈ 6.38 to 51.1 µM) | < 2 µg/mL | A (MIC's of 2.0 μg/mL or less = A) | < 2 µg/mL | < 2 µg/mL | 2 to 16 µg/mL (≈ 6.38 to 51.1 µM) | < 2 µg/mL | 2 to 16 µg/mL (≈ 6.38 to 51.1 µM) | 
CCCC#CC#Cc1ccc(C(=O)N[C@H](C(=O)NO)[C@@H](C)N)cc1 [Example 91-8] | 2 to 16 µg/mL (≈ 6.11 to 48.9 µM) | < 2 µg/mL | A (MIC's of 2.0 μg/mL or less = A) | < 2 µg/mL | < 2 µg/mL | 2 to 16 µg/mL (≈ 6.11 to 48.9 µM) | < 2 µg/mL | 2 to 16 µg/mL (≈ 6.11 to 48.9 µM) | 
CCCC#CC#Cc1ccc(C(=O)N[C@H](C(=O)NO)C(C)(C)N)cc1 [Example 91-9] | < 2 µg/mL | < 2 µg/mL | A (MIC's of 2.0 μg/mL or less = A) | < 2 µg/mL | < 2 µg/mL | < 2 µg/mL | < 2 µg/mL | 2 to 16 µg/mL (≈ 5.86 to 46.9 µM) | 5.2
CC(C)(N)C(NC(=O)c1ccc(C#CC#CC2CC2)cc1)C(=O)NO (stereo not shown) [Example 91-10] | < 2 µg/mL | < 2 µg/mL | A (MIC's of 2.0 μg/mL or less = A) | < 2 µg/mL | < 2 µg/mL | < 2 µg/mL | < 2 µg/mL | 16 to 64 µg/mL (≈ 47.1 to 189 µM) | 
CC(C)(N)[C@@H](NC(=O)c1ccc(C#CC#CC2CC2)cc1)C(=O)NO [Example 91-11] | 16 to 64 µg/mL (≈ 47.1 to 189 µM) | < 2 µg/mL | A (MIC's of 2.0 μg/mL or less = A) | < 2 µg/mL | < 2 µg/mL | 16 to 64 µg/mL (≈ 47.1 to 189 µM) | 2 to 16 µg/mL (≈ 5.89 to 47.1 µM) | 16 to 64 µg/mL (≈ 47.1 to 189 µM) | 
CC(C)C#CC#Cc1ccc(C(=O)NC(C(=O)NO)[C@@H](C)N)cc1 (stereo partly shown) [Example 91-13] | 2 to 16 µg/mL (≈ 6.11 to 48.9 µM) | < 2 µg/mL | A (MIC's of 2.0 μg/mL or less = A) | < 2 µg/mL | < 2 µg/mL | 2 to 16 µg/mL (≈ 6.11 to 48.9 µM) | < 2 µg/mL | 2 to 16 µg/mL (≈ 6.11 to 48.9 µM) | 
CC(C)(N)[C@H](NC(=O)c1ccc(C#CC#CC2CCCC2)cc1)C(=O)NO [Example 91-14] | < 2 µg/mL | < 2 µg/mL | A (MIC's of 2.0 μg/mL or less = A) | < 2 µg/mL | < 2 µg/mL | 2 to 16 µg/mL (≈ 5.44 to 43.5 µM) | < 2 µg/mL | 2 to 16 µg/mL (≈ 5.44 to 43.5 µM) | 3.3
CC(C)C#CC#Cc1ccc(C(=O)N[C@H](C(=O)NO)C(C)(C)N)cc1 [Example 91-15] | < 2 µg/mL | < 2 µg/mL | A (MIC's of 2.0 μg/mL or less = A) | < 2 µg/mL | < 2 µg/mL | 2 to 16 µg/mL (≈ 5.86 to 46.9 µM) | < 2 µg/mL | 2 to 16 µg/mL (≈ 5.86 to 46.9 µM) | 6.5
CC(C)(N)[C@H](NC(=O)c1ccc(C#CC#CC2CCC2)cc1)C(=O)NO [Example 91-16] | < 2 µg/mL | < 2 µg/mL | A (MIC's of 2.0 μg/mL or less = A) | < 2 µg/mL | < 2 µg/mL | < 2 µg/mL | < 2 µg/mL | 2 to 16 µg/mL (≈ 5.66 to 45.3 µM) | 2.6
C[C@@H](N)[C@H](NC(=O)c1ccc(C#CC#CC2CCC2)cc1)C(=O)NO [Example 91-17] | 2 to 16 µg/mL (≈ 5.89 to 47.1 µM) | < 2 µg/mL | A (MIC's of 2.0 μg/mL or less = A) | < 2 µg/mL | < 2 µg/mL | 2 to 16 µg/mL (≈ 5.89 to 47.1 µM) | < 2 µg/mL | 16 to 64 µg/mL (≈ 47.1 to 189 µM) | 

— patent US9617256B2 (priority 2007, dated 2017)
